How the values were obtained:
[1] = molecular target: T1, Cytochrome P450 1A1 (Homo sapiens, UniProt P04798); test: Inhibition of CYP1A1 (unknown origin); assay type: ADME
T1 sequence (P04798 whole entry): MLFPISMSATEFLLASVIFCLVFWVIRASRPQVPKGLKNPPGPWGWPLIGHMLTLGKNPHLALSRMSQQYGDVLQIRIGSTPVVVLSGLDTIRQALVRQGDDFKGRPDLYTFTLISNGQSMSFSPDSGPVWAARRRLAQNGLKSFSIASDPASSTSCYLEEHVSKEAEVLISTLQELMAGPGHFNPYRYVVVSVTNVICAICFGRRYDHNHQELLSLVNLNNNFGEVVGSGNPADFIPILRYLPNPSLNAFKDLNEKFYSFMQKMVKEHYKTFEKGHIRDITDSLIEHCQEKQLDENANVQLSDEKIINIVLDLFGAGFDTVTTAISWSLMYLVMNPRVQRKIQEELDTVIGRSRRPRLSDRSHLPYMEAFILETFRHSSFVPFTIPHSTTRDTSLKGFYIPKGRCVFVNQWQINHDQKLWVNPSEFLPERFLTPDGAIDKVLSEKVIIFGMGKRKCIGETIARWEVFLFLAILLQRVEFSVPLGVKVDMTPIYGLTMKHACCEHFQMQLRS

[2] = molecular target: T2, Cytochrome P450 1A2 (Homo sapiens, UniProt P05177); test: Inhibition of CYP1A2 (unknown origin); assay type: ADME
T2 sequence (P05177 whole entry): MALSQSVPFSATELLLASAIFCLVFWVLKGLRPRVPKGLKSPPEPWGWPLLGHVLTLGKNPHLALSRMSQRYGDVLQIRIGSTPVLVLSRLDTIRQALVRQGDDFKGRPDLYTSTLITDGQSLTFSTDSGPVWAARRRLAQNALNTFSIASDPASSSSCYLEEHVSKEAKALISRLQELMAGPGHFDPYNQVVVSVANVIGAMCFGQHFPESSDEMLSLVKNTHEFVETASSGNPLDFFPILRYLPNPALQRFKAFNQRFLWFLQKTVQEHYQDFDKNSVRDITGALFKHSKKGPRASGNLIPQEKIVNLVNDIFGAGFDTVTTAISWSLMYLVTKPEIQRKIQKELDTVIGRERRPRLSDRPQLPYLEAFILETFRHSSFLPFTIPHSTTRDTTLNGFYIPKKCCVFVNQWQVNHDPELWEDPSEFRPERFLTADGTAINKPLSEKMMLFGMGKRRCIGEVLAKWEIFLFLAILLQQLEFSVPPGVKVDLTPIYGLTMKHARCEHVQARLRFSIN

[3] = molecular target: T3, Cytochrome P450 1B1 (Homo sapiens, UniProt Q16678); test: Inhibition of CYP1B1 (unknown origin) by EROD assay; assay type: ADME
T3 sequence (Q16678 whole entry): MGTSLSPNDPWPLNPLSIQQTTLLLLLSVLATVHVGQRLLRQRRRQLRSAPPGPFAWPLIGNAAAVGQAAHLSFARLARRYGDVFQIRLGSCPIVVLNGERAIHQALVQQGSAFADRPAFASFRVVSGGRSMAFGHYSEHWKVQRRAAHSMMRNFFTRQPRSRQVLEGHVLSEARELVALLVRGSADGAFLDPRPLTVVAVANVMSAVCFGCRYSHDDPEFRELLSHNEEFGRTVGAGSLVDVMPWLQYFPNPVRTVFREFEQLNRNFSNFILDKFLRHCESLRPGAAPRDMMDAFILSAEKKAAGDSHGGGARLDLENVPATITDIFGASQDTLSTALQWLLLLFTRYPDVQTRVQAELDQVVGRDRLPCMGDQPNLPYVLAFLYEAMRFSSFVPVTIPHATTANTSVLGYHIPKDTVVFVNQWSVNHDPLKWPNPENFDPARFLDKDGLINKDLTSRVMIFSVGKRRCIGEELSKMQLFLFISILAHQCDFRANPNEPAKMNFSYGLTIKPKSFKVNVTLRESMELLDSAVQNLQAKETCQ

[4] = Drug distribution in KM mouse bone xenografted with human HCT-116 cells measured after 1 hr block group; assay type: ADME, tissue-based, Bone element; conditions: read-out: Drug uptake
[5] = Drug accumulation in heart of KM mouse measured after 10 mins; assay type: ADME, tissue-based; conditions: in vivo
[6] = Drug accumulation in bone of KM mouse measured after 2 hrs; assay type: ADME, tissue-based, Bone element; conditions: read-out: Drug uptake
[7] = Retention time of the compound; assay type: physicochemical
[8] = Drug distribution in KM mouse spleen xenografted with human HCT-116 cells measured after 1 hr; assay type: ADME, tissue-based; conditions: read-out: Drug uptake
[9] = Drug distribution in KM mouse heart xenografted with human HCT-116 cells measured after 1 hr; assay type: ADME, tissue-based; conditions: read-out: Drug uptake
[10] = Drug distribution in KM mouse muscle xenografted with human HCT-116 cells measured after 1 hr; assay type: ADME, tissue-based, Muscle tissue; conditions: read-out: Drug uptake
[11] = Drug distribution in KM mouse pancreas xenografted with human HCT-116 cells measured after 1 hr; assay type: ADME, tissue-based; conditions: read-out: Drug uptake
[12] = Drug uptake in mouse liver measured after 60 min; assay type: ADME, tissue-based; conditions: in vivo, 1 h
[13] = Drug accumulation in blood of KM mouse measured after 2 hrs; assay type: ADME, tissue-based; conditions: read-out: Drug uptake
[14] = Drug distribution in KM mouse kidney xenografted with human HCT-116 cells measured after 1 hr; assay type: ADME, tissue-based; conditions: read-out: Drug uptake
[15] = Drug distribution in KM mouse intestine xenografted with human HCT-116 cells measured after 1 hr; assay type: ADME, tissue-based; conditions: read-out: Drug uptake
[16] = Drug distribution in KM mouse intestine xenografted with human HCT-116 cells measured after 1 hrs block group; assay type: ADME, tissue-based; conditions: read-out: Drug uptake
[17] = Drug uptake in human MCF7 cells measured after 30 mins in presence of 2-(4-bromophenyl)-4-(2-(2-(2-fluoroethoxy)ethoxy)ethoxy)quinazoline; assay type: ADME, cell-based; conditions: mcf7, 0.5 h
[18] = Drug uptake in human HCT-116 cells at 10 nM measured after 30 min; assay type: ADME, cell-based; conditions: hct-116, 0.5 h, 0.01 µM
[19] = Drug distribution in KM mouse lung xenografted with human HCT-116 cells measured after 1 hr block group; assay type: ADME, tissue-based; conditions: read-out: Drug uptake
[20] = Ratio of drug level in tumor to muscle in KM mouse xenografted with human HCT-116 cells measured after 1 hr block group; assay type: ADME, tissue-based
[21] = Lipophilicity, logP of compound; assay type: physicochemical; conditions: octanol/water
[22] = Stability of compound in PBS assessed as compound remaining measure after 1 to 2 hrs; assay type: physicochemical; conditions: buffer; time 1-2 hrs
[23] = Drug distribution in KM mouse stomach xenografted with human HCT-116 cells measured after 1 hr; assay type: ADME, tissue-based; conditions: read-out: Drug uptake
[24] = Drug distribution in KM mouse tumor xenografted with human HCT-116 cells measured after 1 hr block group; assay type: ADME, tissue-based, Neoplasm; conditions: read-out: Drug uptake
[25] = Drug distribution in KM mouse tumor xenografted with HCT-116 cells measured after 1 hr; assay type: ADME, tissue-based, Neoplasm; conditions: read-out: Drug uptake
[26] = Drug uptake in human HCT-15 cells measured after 30 mins in presence of 2-(4-bromophenyl)-4-(2-(2-(2-fluoroethoxy)ethoxy)ethoxy)quinazoline; assay type: ADME, cell-based; conditions: hct-15, 0.5 h
[27] = Drug distribution in KM mouse brain xenografted with human HCT-116 cells measured after 1 hr; assay type: ADME, tissue-based; conditions: read-out: Drug uptake
[28] = Drug uptake in KM mouse liver xenografted with human HCT-116 cells measured after 40 to 60 mins by PET imaging based analysis; assay type: ADME, tissue-based; conditions: time 40-60 min
[29] = Drug distribution in KM mouse heart xenografted with human HCT-116 cells measured after 1 hr block group; assay type: ADME, tissue-based; conditions: read-out: Drug uptake
[30] = Ratio of drug level in tumor to blood in KM mouse xenografted with human HCT-116 cells measured after 1 hr; assay type: ADME, tissue-based
[31] = Ratio of drug level in tumor to muscle in KM mouse xenografted with human HCT-116 cells measured after 1 hr; assay type: ADME, tissue-based
[32] = Drug uptake in human HCT-116 cells measured after 30 mins; assay type: ADME, cell-based; conditions: hct-116, 0.5 h
[33] = Drug distribution in KM mouse bone xenografted with human HCT-116 cells measured after 1 hr; assay type: ADME, tissue-based, Bone element; conditions: read-out: Drug uptake
[34] = Drug distribution in KM mouse kidney xenografted with human HCT-116 cells measured after 1 hr block group; assay type: ADME, tissue-based; conditions: read-out: Drug uptake
[35] = Drug distribution in KM mouse blood xenografted with human HCT-116 cells measured after 1 hr; assay type: ADME, tissue-based; conditions: read-out: Drug uptake
[36] = Drug distribution in KM mouse brain xenografted with human HCT-116 cells measured after 1 hr block group; assay type: ADME, tissue-based; conditions: read-out: Drug uptake
[37] = Drug uptake in human HCT-15 cells measured after 1 hr; assay type: ADME, cell-based; conditions: hct-15, 1 h
[38] = Drug accumulation in liver of KM mouse measured after 10 mins; assay type: ADME, tissue-based; conditions: read-out: Drug uptake
[39] = Drug distribution in KM mouse stomach xenografted with human HCT-116 cells measured after 1 hr block group; assay type: ADME, tissue-based; conditions: read-out: Drug uptake
[40] = Ratio of drug level in tumor to blood in KM mouse xenografted with human HCT-116 cells measured after 1 hr block group; assay type: ADME, tissue-based
[41] = Drug distribution in KM mouse pancreas xenografted with human HCT-116 cells measured after 1 hr block group; assay type: ADME, tissue-based; conditions: read-out: Drug uptake
[42] = Drug uptake in human MCF7 cells measured after 1 hr; assay type: ADME, cell-based; conditions: mcf7, 1 h
[43] = Drug accumulation in small intestine of KM mouse measured after 2 hrs; assay type: ADME, tissue-based; conditions: read-out: Drug uptake
[44] = Stability of compound in mouse plasma assessed as compound remaining measured after 1 to 2 hrs; assay type: ADME, cell-free; conditions: time 1-2 hrs
[45] = Drug distribution in KM mouse spleen xenografted with human HCT-116 cells measured after 1 hr block group; assay type: ADME, tissue-based; conditions: read-out: Drug uptake
[46] = Drug uptake in KM mouse intestine xenografted with human HCT-116 cells measured after 80 mins by PET imaging based analysis; assay type: ADME, tissue-based; conditions: 1.333 h
[47] = Drug distribution in KM mouse blood xenografted with human HCT-116 cells measured after 1 hr block group; assay type: ADME, tissue-based; conditions: read-out: Drug uptake
[48] = Drug accumulation in intestine of KM mouse measured after 30 mins; assay type: ADME, tissue-based; conditions: read-out: Drug uptake
[49] = Drug accumulation in brain of KM mouse measured after 10 mins; assay type: ADME, tissue-based; conditions: read-out: Drug uptake
[50] = Drug uptake in KM mouse gastrointestinal tract xenografted with human HCT-116 cells measured after 40 to 60 mins by PET imaging based analysis; assay type: ADME, tissue-based; conditions: time 40-60 min
[51] = Drug distribution in KM mouse liver xenografted with human HCT-116 cells measured after 1 hr; assay type: ADME, tissue-based; conditions: read-out: Drug uptake
[52] = Drug distribution in KM mouse lung xenografted with human HCT-116 cells measured after 1 hr; assay type: ADME, tissue-based; conditions: read-out: Drug uptake
[53] = Drug uptake in mouse liver measured after 10 mins; assay type: ADME, tissue-based; conditions: in vivo
[54] = Drug distribution in KM mouse liver xenografted with human HCT-116 cells measured after 1 hr block group; assay type: ADME, tissue-based; conditions: read-out: Drug uptake
[55] = Drug distribution in KM mouse muscle xenografted with human HCT-116 cells measured after 1 hr block group; assay type: ADME, tissue-based, Muscle tissue; conditions: read-out: Drug uptake

Compound: Oc1nc(-c2ccc(F)cc2)nc2ccccc12
- IC50 [1]: > 1000 nM
- IC50 [2]: > 1000 nM
- IC50 [3]: > 1000 nM

Compound: [18F]CCOCCOCCOc1nc(-c2ccc(Br)cc2)nc2ccccc12
- tissue uptake at 1 h [4]: 2.44 %ID/g
- Drug uptake [5]: Active
- tissue uptake at 2 h [6]: 5.62 %ID/g
- Retention_time [7]: 2.97 min
- tissue uptake at 1 h [8]: 6.45 %ID/g
- tissue uptake at 1 h [9]: 6.4 %ID/g
- tissue uptake at 1 h [10]: 4.92 %ID/g
- tissue uptake at 1 h [11]: 8.21 %ID/g
- Drug uptake [12]: 37.63%
- tissue uptake at 2 h [13]: 3.97 %ID/g
- tissue uptake at 1 h [14]: 8.49 %ID/g
- tissue uptake at 1 h [15]: 8.84 %ID/g
- tissue uptake at 1 h [16]: 7.1 %ID/g
- Drug uptake [17]: 13.62%
- Drug uptake [18]: 23.64%
- tissue uptake at 1 h [19]: 5.42 %ID/g
- Ratio [20]: 0.79
- logP [21]: 3.88
- Stability [22]: > 90%
- tissue uptake at 1 h [23]: 1.75 %ID/g
- tissue uptake at 1 h [24]: 3.31 %ID/g
- tissue uptake at 1 h [25]: 4.76 %ID/g
- Drug uptake [26]: 18.35%
- tissue uptake at 1 h [27]: 7.34 %ID/g
- Drug uptake [28]: Active
- tissue uptake at 1 h [29]: 5.23 %ID/g
- Kp at 1 h [30]: 1.16
- Ratio [31]: 0.98
- Drug uptake [32]: 35.27%
- tissue uptake at 1 h [33]: 2.81 %ID/g
- tissue uptake at 1 h [34]: 7.65 %ID/g
- tissue uptake at 1 h [35]: 4.15 %ID/g
- tissue uptake at 1 h [36]: 6.56 %ID/g
- Drug uptake [37]: 25.61%
- tissue uptake at 10 min [38]: 10.2 %ID/g
- tissue uptake at 1 h [39]: 1.6 %ID/g
- Kp at 1 h [40]: 1.01
- tissue uptake at 1 h [41]: 7.53 %ID/g
- Drug uptake [42]: 25.26%
- tissue uptake at 2 h [43]: 8.37 %ID/g
- Stability [44]: > 90%
- tissue uptake at 1 h [45]: 5.62 %ID/g
- Drug uptake [46]: Active
- tissue uptake at 1 h [47]: 3.3 %ID/g
- tissue uptake at 0.5 h [48]: 10.8 %ID/g
- tissue uptake at 10 min [49]: 7.94 %ID/g
- Drug uptake [50]: Active
- tissue uptake at 1 h [51]: 9.99 %ID/g
- tissue uptake at 1 h [52]: 5.66 %ID/g
- Drug uptake [53]: 83.7%
- tissue uptake at 1 h [54]: 9.5 %ID/g
- tissue uptake at 1 h [55]: 4.2 %ID/g

Source: ChEMBL document CHEMBL5329194, “Design, Synthesis, and Evaluation of 18F-Labeling CYP1B1 PET Tracer Based on 2-Phenylquinazolin” (Bioorg Med Chem Lett, 2023)
